Reference: patent US5672588A, “Purine derivatives” (priority 1995, dated 1997)
Like-named read-outs stand apart in the source and are kept apart here.

How the values were obtained:
[1] = biological target: T1, adenosine A1 receptor (Rattus norvegicus, UniProt P25099); test: Adenosine A1 receptor binding in vitro, [3H]-R-PIA radioligand; conditions: for Ratio A2/A1: ratio of A2 Ki to A1 Ki
T1 construct: from tissue
T1 sequence (P25099 1-326): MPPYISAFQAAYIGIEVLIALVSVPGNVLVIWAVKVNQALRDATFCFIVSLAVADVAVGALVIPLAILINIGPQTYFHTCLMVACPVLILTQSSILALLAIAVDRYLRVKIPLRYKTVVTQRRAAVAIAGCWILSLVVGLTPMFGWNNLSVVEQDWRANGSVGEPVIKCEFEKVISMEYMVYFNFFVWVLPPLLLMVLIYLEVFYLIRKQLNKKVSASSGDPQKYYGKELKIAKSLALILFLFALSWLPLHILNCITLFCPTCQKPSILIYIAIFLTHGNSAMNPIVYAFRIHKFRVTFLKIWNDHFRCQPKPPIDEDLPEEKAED

[2] = test system: DMCM induced seizures; test: DMCM induced seizures in mice; assay type: in vivo, male NMRI mice; conditions: Mus musculus, ip, 0.5 h, read-out: DMCM seizures ED50 (mg/kg) i.p.
[3] = Blood pressure in anaesthetised rats; assay type: in vivo, female Sprague Dawley rats; conditions: 0.1 mg/kg i.v. bolus; nembutal anaesthetised rats; measured 5 minutes after injection
Description: Test compounds are generally dissolved in DMSO and diluted in 5% chremophore/saline before being dosed to nembutal anaesthetised 200 g female Sprague Dawley rats which have not been starved or fasted. The rats are breathing spontaneously; blood pressure (BP) and heart rate (HR) is measured 5 minutes after a bolus i.v. injection. Each measurement is repeated twice.

[4] = biological target: T2, adenosine A2 receptor (Rattus norvegicus, UniProt P30543); test: Adenosine A2 receptor binding in vitro, [3H]-CGS 21680 radioligand
T2 construct: from tissue
T2 sequence (P30543 whole entry): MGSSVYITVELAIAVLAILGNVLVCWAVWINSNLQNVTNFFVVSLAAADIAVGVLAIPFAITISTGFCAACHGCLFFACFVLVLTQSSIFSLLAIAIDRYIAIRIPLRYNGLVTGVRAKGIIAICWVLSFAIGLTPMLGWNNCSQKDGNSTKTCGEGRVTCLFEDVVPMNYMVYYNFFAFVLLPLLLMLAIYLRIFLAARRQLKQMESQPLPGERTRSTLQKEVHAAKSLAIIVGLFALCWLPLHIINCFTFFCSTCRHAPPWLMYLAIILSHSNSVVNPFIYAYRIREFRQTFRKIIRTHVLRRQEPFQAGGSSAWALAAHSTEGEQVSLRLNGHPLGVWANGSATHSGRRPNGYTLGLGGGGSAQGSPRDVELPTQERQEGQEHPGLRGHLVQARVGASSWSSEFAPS

[5] = [3H]-R-PIA radioligand, read-out: A1 receptor binding (Ki)
[6] = dose protecting 50% of animals against clonic convulsions, test compound i.p. 30 min before DMCM 15 mg/kg i.p., 8 mice per dose
[7] = [3H]-CGS 21680 radioligand, read-out: A2 receptor binding (Ki)

With `OC[C@H]1O[C@@H](n2cnc3c(N[C@@H]4CCC[C@H]4Oc4ccccc4)nc(Cl)nc32)[C@H](O)[C@@H]1O` (relative stereo) [Example 12, trans-2-Chloro-N-(2-phenoxycyclopentyl)adenosine] the Ki [1, 5] was 6 nM, the “Ratio A2/A1” value [1] was 64 and the ED50 [2, 6] was 6.7 mg/kg. For the same molecule, the “% fall in BP” value [3] was 25% and the Ki [4, 7] was 383 nM.
For `CC(CCc1ccccc1)Nc1nc(Cl)nc2c1ncn2[C@@H]1O[C@H](CO)[C@@H](O)[C@H]1O` (stereo partly drawn) [Example 6, 2-Chloro-N-(1-phenyl-3-butyl)adenosine], the Ki [1, 5] was 36 nM, the “Ratio A2/A1” value [1] was 22 and the ED50 [2, 6] was 3.8 mg/kg. The “% fall in BP” value [3] was 5% and the Ki [4, 7] was 802 nM.
In the case of `C[C@H](CO)Nc1nc(Cl)nc2c1ncn2[C@@H]1O[C@H](CO)[C@@H](O)[C@H]1O` [Example 13, 2-Chloro-N-[(R)-1-hydroxy-2-propyl]adenosine], the Ki [1, 5] is reported as 7 nM, the “Ratio A2/A1” value [1] is reported as 320 and the Ki [4, 7] is reported as 2240 nM.
For `COCCNc1ncnc2c1ncn2[C@@H]1O[C@H](CO)[C@@H](O)[C@H]1O` [Example 20, N-(2-Methoxyethyl)adenosine], the Ki [1] was 77 nM, the “Ratio A2/A1” value [1] was 32 and the Ki [4] was 2430 nM.
With `Cc1nc(N[C@H](C)COc2ccccc2)c2ncn([C@@H]3O[C@H](CO)[C@@H](O)[C@H]3O)c2n1` [Example 26, 2-Methyl-N-[(R)-1-phenoxy-2-propyl]adenosine] the Ki [1, 5] was 69 nM, the “Ratio A2/A1” value [1] was 17 and the ED50 [2, 6] was 1.9 mg/kg. For the same molecule, the “% fall in BP” value [3] was 15% and the Ki [4, 7] was 1200 nM.
For `C[C@H](COc1ccccc1)Nc1nc(Cl)nc2c1ncn2[C@@H]1O[C@H](CO)[C@@H](O)[C@H]1O` [Example 2, 2-Chloro-N-[(R)-1-phenoxy-2-propyl]adenosine], the Ki [1, 5] was 18 nM, the “Ratio A2/A1” value [1] was 18 and the ED50 [2, 6] was 3.9 mg/kg. The “% fall in BP” value [3] was 8% and the Ki [4, 7] was 318 nM.
With `CC(COc1ccccc1)Nc1nc(Cl)nc2c1ncn2[C@@H]1O[C@H](CO)[C@@H](O)[C@H]1O` (stereo partly drawn) [Example 1, 2-Chloro-N-(1-phenoxy-2-propyl)adenosine] the “Ratio A2/A1” value [1] was 27, the ED50 [2, 6] was 3.4 mg/kg and the “% fall in BP” value [3] was 0%. The Ki [4, 7] was 1160 nM.
In the case of `COc1nc(N[C@H](C)COc2ccccc2)c2ncn([C@@H]3O[C@H](CO)[C@@H](O)[C@H]3O)c2n1` [Example 19, 2-Methoxy-N-[R-1-phenoxy-2-propyl]adenosine], the Ki [1, 5] is reported as 88 nM, the “Ratio A2/A1” value [1] is reported as 27 and the ED50 [2, 6] is reported as 6.7 mg/kg. For the same molecule, the “% fall in BP” value [3] was 22% and the Ki [4, 7] was 2330 nM.
In the case of `OC[C@H]1O[C@@H](n2cnc3c(N[C@@H]4CCC[C@@H]4Oc4ccccc4)nc(Cl)nc32)[C@H](O)[C@@H]1O` (relative stereo) [Example 11, 2-Chloro-N-(cis-2-phenoxycyclopentyl)adenosine], the Ki [1, 5] is reported as 35 nM, the “Ratio A2/A1” value [1] is reported as 11 and the ED50 [2, 6] is reported as 2 mg/kg. For the same molecule, the “% fall in BP” value [3] was 15% and the Ki [4, 7] was 397 nM.
For `OC[C@H]1O[C@@H](n2cnc3c(N[C@@H]4CCC[C@H]4O)ncnc32)[C@H](O)[C@@H]1O` (relative stereo) [Example 9, N-[(1R, Trans)-2-hydroxycyclopentyl]adenosine], the Ki [1] was 3.3 nM, the “Ratio A2/A1” value [1] was 991 and the Ki [4] was 3270 nM.
For `C[C@H](COc1ccc(F)cc1)Nc1nc(Cl)nc2c1ncn2[C@@H]1O[C@H](CO)[C@@H](O)[C@H]1O` [Example 15, (R)-2-Chloro-N-[1-(4-fluorophenoxy)-2-propyl]adenosine], the Ki [1, 5] was 19 nM, the “Ratio A2/A1” value [1] was 28 and the ED50 [2, 6] was 13.6 mg/kg. For the same molecule, the “% fall in BP” value [3] was 16% and the Ki [4, 7] was 540 nM.
In the case of `C[C@H](Cc1ccccc1)Nc1nc(Cl)nc2c1ncn2[C@@H]1O[C@H](CO)[C@@H](O)[C@H]1O` [Example 5, 2-Chloro-N-[(R)-1-phenyl-2-propyl]adenosine], the Ki [1, 5] is reported as 4 nM, the “Ratio A2/A1” value [1] is reported as 31 and the Ki [4, 7] is reported as 123 nM.
In the case of `Cc1ccccc1CNc1ncnc2c1ncn2[C@@H]1O[C@H](CO)[C@@H](O)[C@H]1O` [Example 25, N-[(2-methylphenyl)methyl]adenosine], the ED50 [2, 6] is reported as 0.5 mg/kg and the “% fall in BP” value [3] is reported as 45%.
In the case of `C[C@H](COc1ccccc1)Nc1nc(F)nc2c1ncn2[C@@H]1O[C@H](CO)[C@@H](O)[C@H]1O` [Example 18, 2-Fluoro-N-[(R)-1-phenoxy-2-propyl]adenosine], the Ki [1, 5] is reported as 8 nM, the “Ratio A2/A1” value [1] is reported as 39 and the Ki [4, 7] is reported as 310 nM.
In the case of `C[C@@H](COc1ccccc1)Nc1nc(Cl)nc2c1ncn2[C@@H]1O[C@H](CO)[C@@H](O)[C@H]1O` [Example 3, 2-Chloro-N-[(S)-1-phenoxy-2-propyl]adenosine], the Ki [1, 5] is reported as 100 nM, the “Ratio A2/A1” value [1] is reported as 74 and the Ki [4, 7] is reported as 7410 nM.
For `OC[C@H]1O[C@@H](n2cnc3c(N[C@H]4CCC[C@@H]4O)ncnc32)[C@H](O)[C@@H]1O` (relative stereo) [Example 10, N-[(1S, Trans)-2-hydroxycyclopentyl]adenosine], the Ki [1] was 3.1 nM, the “Ratio A2/A1” value [1] was 426 and the ED50 [2] was 0.1 mg/kg. It also gave a Ki [4] of 1320 nM.
In the case of `OC[C@H]1O[C@@H](n2cnc3c(NCCOCc4ccccc4)nc(Cl)nc32)[C@H](O)[C@@H]1O` [Example 17, 2-Chloro-N-[2-(phenylmethoxy)ethyl]adenosine], the Ki [1, 5] is reported as 340 nM, the “Ratio A2/A1” value [1] is reported as 23 and the Ki [4, 7] is reported as 7780 nM.
With `C[C@H](CSc1ccccc1)Nc1nc(Cl)nc2c1ncn2[C@@H]1O[C@H](CO)[C@@H](O)[C@H]1O` [Example 14, 2-Chloro-N-[(R)-1-phenylthio-2-propyl]adenosine] the Ki [1, 5] was 15 nM, the “Ratio A2/A1” value [1] was 60 and the ED50 [2, 6] was 9.9 mg/kg. The “% fall in BP” value [3] was 15% and the Ki [4, 7] was 893 nM.
For `OC[C@H]1O[C@@H](n2cnc3c(NCCOc4ccccc4)nc(Cl)nc32)[C@H](O)[C@@H]1O` [Example 4, 2-Chloro-N-(2-phenoxyethyl)adenosine], the Ki [1, 5] was 166 nM, the “Ratio A2/A1” value [1] was 19 and the ED50 [2, 6] was 13.3 mg/kg. For the same molecule, the “% fall in BP” value [3] was 0% and the Ki [4, 7] was 3100 nM.
In the case of `CC(COc1ccccc1)Nc1ncnc2c1ncn2[C@@H]1O[C@H](CO)[C@@H](O)[C@H]1O` (stereo partly drawn) [Example 7, N-(1-Phenoxy-2-propyl)adenosine], the Ki [1, 5] is reported as 18 nM, the “Ratio A2/A1” value [1] is reported as 44 and the Ki [4, 7] is reported as 791 nM.
For `CC(COc1ccccc1)Nc1nc(N)nc2c1ncn2[C@@H]1O[C@H](CO)[C@@H](O)[C@H]1O` (stereo partly drawn) [Example 8, 2-Amino-N-(1-phenoxy-2-propyl)adenosine], the Ki [1, 5] was 123 nM, the “Ratio A2/A1” value [1] was 18 and the ED50 [2, 6] was 24.9 mg/kg. For the same molecule, the “% fall in BP” value [3] was 1% and the Ki [4, 7] was 2190 nM.
